According to ChEMBL document CHEMBL1201862, “PubChem BioAssay data set” (2004):
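Briefly, cells in 96-well plates were exposed to five compound concentrations for 48 h, and endpoints were estimated by linear interpolation. At the GI50, growth is halved.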 The source made the active and inactive calls. Cut-off read from the data, not from the text of the source: active = GI50 up to about 1.1 µM and inactive = higher.

Key:
Assay in all cases: NCI-60 cell line screen, 48 h
BT-549 = tested on: BT-549
Hs-578T = tested on: Hs-578T
PC-3 = tested on: PC-3
MDA-N = tested on: MDA-N
SNB-78 = tested on: SNB-78
DMS-273 = tested on: DMS-273
HOP-18 = tested on: HOP-18
XF498 = tested on: XF498

Compound | GI50 (BT-549) | GI50 (Hs-578T) | GI50 (PC-3) | GI50 (MDA-N) | GI50 (SNB-78) | GI50 (DMS-273) | GI50 (HOP-18) | GI50 (XF498)
O=c1c2cc(O)c(O)cc2oc2cc(O)c(C3OC(CO)C(O)C(O)C3O)c(O)c12 (centres undefined) | > 100 µM (inactive) | > 100 µM (inactive) | > 100 µM (inactive) | > 100 µM (inactive) | – | – | – | –
CCOC(=O)NC(Nc1ncccn1)(C(F)(F)F)C(F)(F)F | > 100 µM (inactive) | > 100 µM (inactive) | – | > 100 µM (inactive) | – | – | – | –
CN(C)S(=O)(=O)n1ccnc1 | > 100 µM (inactive) | – | > 100 µM (inactive) | > 100 µM (inactive) | – | – | – | –
CCOc1ccccc1N1C(=O)C(=O)C(c2nc3ccccc3o2)/C(=N\N)C1=O (centres undefined) | – | – | – | – | > 100 µM (inactive) | > 100 µM (inactive) | – | –
O=C(O)c1cc2ccccc2c(/N=N/c2ccc(S(=O)(=O)O)cc2)c1O | > 100 µM (inactive) | > 100 µM (inactive) | > 100 µM (inactive) | > 100 µM (inactive) | – | – | – | –
N#Cc1c(C#N)c(SSc2c(C#N)c(C#N)c(N)n2-c2cccc3ccccc23)n(-c2cccc3ccccc23)c1N | 5.83 µM (inactive) | 24.6 µM (inactive) | 17.4 µM (inactive) | 6.11 µM (inactive) | – | – | – | –
COc1ccc(C(N)=O)cc1/N=N/N(C)C | – | – | – | – | – | > 100 µM (inactive) | > 100 µM (inactive) | –
CCOC(=O)CCN1C(=O)c2c(NC(=O)C(=O)O)cccc2S1(=O)=O | > 100 µM (inactive) | > 100 µM (inactive) | > 100 µM (inactive) | > 100 µM (inactive) | – | – | – | –
CCc1c(-c2ccc(OC)cc2)oc(OC)c(C)c1=O | 93.8 µM (inactive) | > 100 µM (inactive) | 57.4 µM (inactive) | – | – | – | – | –
CC1(C=O)C(=O)CCC2(C)C3CC(=O)OC3CCC12 (centres undefined) | – | – | – | – | – | > 100 µM (inactive) | > 100 µM (inactive) | –
Cc1cc(C)c2c(=O)n(CN3CCC(O)(c4ccccc4)CC3)sc2n1 | 97.3 µM (inactive) | 40 µM (inactive) | 60.1 µM (inactive) | 19.6 µM (inactive) | – | – | – | –
Clc1ccccc1CN1COc2c(ccc3cccnc23)C1 | – | – | – | – | 3.37 µM (inactive) | 3.42 µM (inactive) | – | 9.68 µM (inactive)
CSC1NNC2(C(=O)N1)c1ccccc1-c1ccccc12 (centres undefined) | > 10 µM (inactive) | > 10 µM (inactive) | > 10 µM (inactive) | > 10 µM (inactive) | – | – | – | –
COC(=O)c1ccc(NC(=O)c2cc3c(cc2Br)OCO3)o1 | 39.5 µM (inactive) | – | > 100 µM (inactive) | 42.5 µM (inactive) | – | – | – | –
COC(=O)C1C(=O)CC2CCCCC21 (centres undefined) | – | – | – | – | > 100 µM (inactive) | > 100 µM (inactive) | – | –
CSC1=C(C#N)C(=S)N=C(N)C1C(=O)Nc1ccc(C)cc1 (centres undefined) | > 100 µM (inactive) | > 100 µM (inactive) | > 100 µM (inactive) | > 100 µM (inactive) | – | – | – | –
Cc1nc(Cl)c(C)c(Cl)n1 | > 100 µM (inactive) | > 75.2 µM (inactive) | > 93.3 µM (inactive) | 18.8 µM (inactive) | – | – | – | –
O=C(O)C1CCCCC1C(=O)Nc1nc2ccccc2[nH]1 (centres undefined) | > 100 µM (inactive) | > 100 µM (inactive) | > 100 µM (inactive) | > 100 µM (inactive) | – | – | – | –
O=[N+]([O-])/C(C(Cl)=C(Cl)Cl)=C(/Br)SCc1ccccc1 | 2 µM (inactive) | 11.7 µM (inactive) | 2.79 µM (inactive) | 1.87 µM (inactive) | – | – | – | –
N#CC(C#N)=Cc1ccc(C=C2SC3=C(SCCS3)S2)s1 | 1.28 µM (inactive) | 41.6 µM (inactive) | 6.04 µM (inactive) | 0.618 µM (active) | – | – | – | –
O=C1/C(=C\c2cccc(Oc3ccccc3)c2)S(=O)(=O)C(c2ccccc2)N1c1ccccc1Cl (centres undefined) | 43.1 µM (inactive) | – | 29 µM (inactive) | 21.2 µM (inactive) | – | – | – | –
CCCCCCCCCCCCCCCCNC(=O)/C(=C\c1ccc(Cl)c(Cl)c1)NC(=O)c1ccccc1 | > 100 µM (inactive) | 42.8 µM (inactive) | 26.5 µM (inactive) | 68.7 µM (inactive) | – | – | – | –
Cc1cccc(C(C)(C)C)c1NC(=O)C(=O)C(c1cnc2ccccc2n1)[N+](=O)[O-] (centres undefined) | – | – | – | – | > 100 µM (inactive) | > 100 µM (inactive) | > 100 µM (inactive) | > 100 µM (inactive)
CC(NC(=O)OC(C)(C)C)C(=O)NC1CCCC1 (centres undefined) | – | > 100 µM (inactive) | > 100 µM (inactive) | > 100 µM (inactive) | – | – | – | –
O=[N+]([O-])C(=C(Nc1ccccc1)Nc1ccccc1)C(Cl)=C(Cl)Cl | 13.9 µM (inactive) | 21.7 µM (inactive) | 15.2 µM (inactive) | 12.6 µM (inactive) | – | – | – | –
COc1cccc(CN(C(=O)/C=C\Sc2ccccc2)C(C)(C)C)c1 | 90.2 µM (inactive) | – | 33 µM (inactive) | 74 µM (inactive) | – | – | – | –
CN(C)c1ccc(/N=N/c2ccncc2)cc1 | 84.1 µM (inactive) | > 100 µM (inactive) | > 100 µM (inactive) | 46 µM (inactive) | – | – | – | –
CCCCCCCCCCCCCCCC(=O)OCCOCCOCCOCc1ccccc1 | – | – | – | – | > 100 µM (inactive) | > 100 µM (inactive) | 50.8 µM (inactive) | > 100 µM (inactive)

Compound | GI50 (BT-549) | GI50 (Hs-578T) | GI50 (PC-3) | GI50 (MDA-N) | GI50 (SNB-78) | GI50 (DMS-273) | GI50 (HOP-18) | GI50 (XF498)
CSc1ccc(-c2cc(-c3nc4ccccc4[nH]3)nc(N)c2C#N)cc1 | 20.6 µM (inactive) | 24.7 µM (inactive) | 20.7 µM (inactive) | 20.7 µM (inactive) | – | – | – | –
O=[N+]([O-])c1ccc2c(c1)c1nn2CCCCOc2nn(c3ccc([N+](=O)[O-])cc23)CCCCO1 | > 100 µM (inactive) | > 100 µM (inactive) | > 100 µM (inactive) | > 100 µM (inactive) | – | – | – | –
Cc1ccc(/N=N/C(=N\c2ccc(F)cc2)c2ccc(N(CCC#N)CCC#N)cc2)cc1 | 67.8 µM (inactive) | 53.7 µM (inactive) | 51.6 µM (inactive) | > 100 µM (inactive) | – | – | – | –
COc1cc(OC)c(/C=C\c2cc(/C=C/c3c(OC)cc(OC)cc3OC)c3ccccc3[n+]2C)c(OC)c1 | 4.1 µM (inactive) | 0.863 µM (active) | 2.6 µM (inactive) | 2.65 µM (inactive) | – | – | – | –
CCOC(=O)N1C(=S)C(C(=O)OC)(C(=O)OC)N=C1C | > 100 µM (inactive) | – | > 100 µM (inactive) | > 100 µM (inactive) | – | – | – | –
CC1=N/C(=C\c2ccc(N)cc2)C(=O)N1Nc1nnc(NN2C(=O)/C(=C/c3ccc(N)cc3)N=C2C)c2ccccc12 | – | – | – | – | – | 77.3 µM (inactive) | 27.1 µM (inactive) | –
CCOC(=O)CC(N1CC1)N1CC1 | – | > 10 µM (inactive) | > 10 µM (inactive) | > 10 µM (inactive) | – | – | – | –
O=C1O/C(=C\c2ccc(O)c(Br)c2)C(c2ccc(O)c(Cl)c2)=C1Br | 17.9 µM (inactive) | 15.7 µM (inactive) | 11.7 µM (inactive) | 16.8 µM (inactive) | – | – | – | –
CC(C)c1ccc(/C=C2\CSCC3=C2N=C2SCC(=O)N2C3c2ccc(C(C)C)cc2)cc1 (centres undefined) | – | > 100 µM (inactive) | > 100 µM (inactive) | > 100 µM (inactive) | – | – | – | –
O=C(Nc1ccccc1C(=O)NCCCO)/C(=C/c1ccccc1O)NC(=O)c1ccccc1 | 19.8 µM (inactive) | 26.2 µM (inactive) | 33.1 µM (inactive) | > 43.5 µM (inactive) | – | – | – | –
O=C(Nc1cccc(NC(=O)C(=O)C2CCC3=C(Sc4ccccc4N3)C2=O)n1)C(=O)C1CCC2=C(Sc3ccccc3N2)C1=O (centres undefined) | 79.6 µM (inactive) | 53 µM (inactive) | 27.4 µM (inactive) | 40.2 µM (inactive) | – | – | – | –
C/C(=N\NC(=O)Nc1ccccc1Cl)c1ccc(O)cc1 | > 100 µM (inactive) | > 100 µM (inactive) | > 100 µM (inactive) | > 100 µM (inactive) | – | – | – | –
CN(C)c1n/c(=N/c2ncn[nH]2)ss1 | – | – | – | – | > 100 µM (inactive) | > 100 µM (inactive) | > 100 µM (inactive) | > 100 µM (inactive)
C/C(=N/NC(=S)NCCc1ccccn1)c1cnccn1 | 32.5 µM (inactive) | 78.5 µM (inactive) | 48.8 µM (inactive) | 53 µM (inactive) | – | – | – | –
CC(C)=CC1C(C(=O)OCc2cc3c(cc2Cl)OCO3)C1(C)C (centres undefined) | 63 µM (inactive) | 21.9 µM (inactive) | 11.5 µM (inactive) | 24.7 µM (inactive) | – | – | – | –
C/C(Nc1ccc(Cl)cc1)=C1/CCOC1=O | 52.7 µM (inactive) | > 100 µM (inactive) | > 43.7 µM (inactive) | 92.5 µM (inactive) | – | – | – | –
CN(C(=O)CCC(=O)O)c1ccccc1C(=O)O | > 100 µM (inactive) | > 100 µM (inactive) | > 100 µM (inactive) | > 100 µM (inactive) | – | – | – | –
O=C1OC2(c3ccccc3Oc3ccccc32)c2ccccc21 | – | – | – | – | > 100 µM (inactive) | > 100 µM (inactive) | > 100 µM (inactive) | –
Fc1nc(Sc2ncnc3nc[nH]c23)nc(-c2c3ccccc3c3sc4ccccc4n23)n1 | > 100 µM (inactive) | > 100 µM (inactive) | > 100 µM (inactive) | > 100 µM (inactive) | – | – | – | –
CN(C)Cc1cc(/N=N/c2cccc(Cl)c2)ccc1O | 15.9 µM (inactive) | 11.4 µM (inactive) | 16.6 µM (inactive) | 10.2 µM (inactive) | – | – | – | –
C[C@]12CC[C@H]3[C@@H](CC=C4C[C@@H](O)CC[C@@]43C)[C@@H]1C/C(=C\c1ccncc1)[C@@H]2O | 3.51 µM (inactive) | 39.3 µM (inactive) | 19.1 µM (inactive) | 21.8 µM (inactive) | – | – | – | –
O=C1NC(=O)[C@H]2C3C=CC([C@@H]12)[C@@H]1C(=O)NC(=O)[C@H]31 | > 100 µM (inactive) | > 100 µM (inactive) | > 100 µM (inactive) | > 100 µM (inactive) | – | – | – | –
CC1C2CC=CC(=O)[C@@]2(C)CCC12OCCO2 (some centres undefined) | – | – | – | – | > 100 µM (inactive) | > 100 µM (inactive) | – | –
CC1=C[C@@H](C)C[C@]2(C)CC[C@H](O2)[C@]23CC[C@](CO)(C[C@H](O2)[C@@H]2O[C@@](C)(CC2=O)[C@@H](O)[C@H]2CC[C@@]4(CCC[C@@H](O4)[C@H](C)C(=O)O[C@H]4C[C@H]([C@]5(O)OCC[C@H](C)[C@@H]5O)O[C@H]4C=C1)O2)O3 | 0.0127 µM (active) | 0.00163 µM (active) | 0.0137 µM (active) | 0.0951 µM (active) | – | – | – | –
c1ccc([P+](c2ccccc2)(c2ccccc2)c2ccc([P+](c3ccccc3)(c3ccccc3)c3ccccc3)c3ccccc23)cc1 | 51.2 µM (inactive) | 47.8 µM (inactive) | 70.6 µM (inactive) | 64.4 µM (inactive) | – | – | – | –
Oc1cc(-c2ccc3ccccc3c2)nc2ncc(Cl)cc12 | 37.8 µM (inactive) | 5.27 µM (inactive) | – | – | – | – | – | –
Cn1cnc2c(NCc3ccccc3)nc(NCCO)nc21 [OLOMOUCINE] | 53.1 µM (inactive) | 69.5 µM (inactive) | 98.2 µM (inactive) | 79.4 µM (inactive) | – | – | – | –
